One series has as its target T1, human RXFP1 (Homo sapiens, UniProt Q9HBX9).
T1 sequence (Q9HBX9 1-757): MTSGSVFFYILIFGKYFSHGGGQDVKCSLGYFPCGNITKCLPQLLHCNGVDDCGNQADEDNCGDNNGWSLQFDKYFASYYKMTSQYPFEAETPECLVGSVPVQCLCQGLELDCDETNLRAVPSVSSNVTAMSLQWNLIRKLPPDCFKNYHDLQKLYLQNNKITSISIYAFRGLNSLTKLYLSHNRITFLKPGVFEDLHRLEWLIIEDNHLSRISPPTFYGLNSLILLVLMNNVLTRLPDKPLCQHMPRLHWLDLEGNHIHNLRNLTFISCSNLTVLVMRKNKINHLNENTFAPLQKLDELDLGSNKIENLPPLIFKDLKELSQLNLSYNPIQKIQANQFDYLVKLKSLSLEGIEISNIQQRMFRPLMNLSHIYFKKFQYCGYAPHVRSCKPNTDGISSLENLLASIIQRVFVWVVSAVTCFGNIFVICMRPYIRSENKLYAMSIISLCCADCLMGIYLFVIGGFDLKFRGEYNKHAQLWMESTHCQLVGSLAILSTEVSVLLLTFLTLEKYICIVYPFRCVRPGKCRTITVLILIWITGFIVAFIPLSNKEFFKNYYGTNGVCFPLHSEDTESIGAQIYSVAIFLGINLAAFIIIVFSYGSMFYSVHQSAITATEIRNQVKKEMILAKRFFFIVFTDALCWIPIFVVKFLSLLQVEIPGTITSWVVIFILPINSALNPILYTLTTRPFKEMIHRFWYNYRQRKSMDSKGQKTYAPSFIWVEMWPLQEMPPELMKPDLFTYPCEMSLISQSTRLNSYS
The series can be described thus: RXFP1 Hu cAMP (Test A). It counts as cell-based. Further details: expressed in transfected cells; host or cells: Jump-In T-REx CHO-K1 cells (ThermoFisher), induced with 10 ng/ml doxycycline for 24 h. To be noted: RXFP1 Hu cAMP; for EC50: read-out: Test A EC50. Put shortly:
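Cells: CHO-K1 stably carrying human RXFP1, expressed after 24 h 10 ng/ml doxycycline; 0.5 mM IBMX final, HTRF detection after 2 h at room temperature.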

The nature of series [1]: Human Plasma Protein Binding (Test B). Type of series: in vitro ADME. Particulars: fraction unbound (fu). Put shortly:
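Values given as % free (fu) in human plasma, using the method of Wernevik et al. (2020). For compounds tested more than once, the arithmetic mean is given.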

A short description of series [2]: Human Liver Microsomal Stability (Test C). Type of series: in vitro ADME. Particulars: human, liver microsomes. Put shortly: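 CLint (μl/min/mg protein) derived from compound depletion in human liver microsomes following a published standardized early-DMPK protocol; replicate determinations given as arithmetic mean.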
Series [3] in a line: Rat Hepatocyte Stability (Test E). Type of series: in vitro ADME. To be noted: rat, hepatocytes, geometric mean if run multiple times. The gist of the method: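 Intrinsic clearance in rat hepatocytes, expressed as μl/min/10^6 cells, following the literature integrated DMPK panel method. Repeat determinations combined as geometric mean.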
Series [4] in a line: Human Hepatocyte Stability (Test D). Type of series: in vitro ADME. To be noted: human, cryopreserved pooled human hepatocytes (LiverPool 10-Donor), geometric mean if run multiple times. Put shortly: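 Intrinsic clearance (μL/min/10^6 cells), derived as kV/N from the log-linear loss of parent compound. Compound incubated at 37 °C with cryopreserved pooled human hepatocytes, 0.25×10^6 cells in 0.25 mL L-15; dosing solution 100 μM in acetonitrile. Singlicate incubations, cassette LC-MS; repeats reported as geometric mean.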

A short description of a further series: Solubility (Test F). Type of series: physicochemical. To be noted: arithmetic mean if run multiple times. As to the method:
The assay was conducted according to the Solubility Assay described in pages 164-167 of Wernevik, J. et al., “A Fully Integrated Assay Panel for Early Drug Metabolism and Pharmacokinetics Profiling”, Assay and Drug Development Technologies, 2020, 18(4), 157-179. Data are reported in Table 36 as solubility ([…]. Where the assay was run multiple times for the same compound, the arithmetic mean is reported.

The conditions of series [5]: cited from earlier work.

In brackets after ≈: the same amount, converted by molar mass.

As to `COc1cc(F)c(O[C@H]2CC[C@@](C)(C(=O)O)CC2)cc1C(=O)N[C@@H]1[C@H]2CC[C@H](C2)[C@@H]1C(=O)N[C@@H]1CCN(S(=O)(=O)C(F)(F)F)C1` [Example 605], at human RXFP1, the “Test A Sinf” value came to 106% and the EC50 was found to be 0.079 µM. In series [1], the “Test B Human Plasma Protein Binding (% free)” value is recorded as 8.6 % free. The same compound registered a microsomal CLint in series [2] of 25 µL/min/mg. In series [3], this compound yielded a hepatocyte CLint of 12 µL/min/1e6 cells. The hepatocyte CLint at 1 µM in series [4] was determined as 4.3 µL/min/1e6 cells. Besides, the concentration in solution in the series “Solubility (Test F)” (solubility) was 890 µM (≈ 591 µg/mL).

Take `COc1cc(F)c(O[C@H]2CC[C@@](C)(C(=O)O)CC2)cc1C(=O)N[C@@H]1[C@H]2CC[C@H](C2)[C@@H]1C(=O)NC12CC(F)(C1)C2` [Example 608]: at human RXFP1, the “Test A Sinf” value is reported as 115% and the EC50 was determined as 0.075 µM. Further, the “Test B Human Plasma Protein Binding (% free)” value in series [1] is reported as 3.5 % free. Moreover, the intrinsic metabolic clearance (microsomal CLint) in series [2] was 20 µL/min/mg. This compound also returned a hepatocyte CLint in series [3] of 8.2 µL/min/1e6 cells. For the same compound, the hepatocyte CLint at 1 µM in series [4] is 3.4 µL/min/1e6 cells. For the same compound, the solubility in the series “Solubility (Test F)” is 880 µM (≈ 481 µg/mL).

As to `CCC1(CNC(=O)[C@H]2[C@@H]3CC[C@@H](C3)[C@H]2NC(=O)c2cc(O[C@H]3CC[C@@](C)(C(=O)O)CC3)c(F)cc2OC)CCC1` [Example 617], at human RXFP1, the “Test A Sinf” value is given as 101% and the EC50 was found to be 0.05 µM. For the same compound, in series [1], the “Test B Human Plasma Protein Binding (% free)” value is reported as 2.4 % free. Further, the intrinsic metabolic clearance (microsomal CLint) in series [2] worked out at 120 µL/min/mg. The same compound displayed a hepatocyte CLint in series [3] of 13 µL/min/1e6 cells. In addition, the hepatocyte CLint at 1 µM in series [4] was found to be 12 µL/min/1e6 cells. The compound further gave a solubility in the series “Solubility (Test F)” of 810 µM (≈ 453 µg/mL).

With `COc1cc(C#N)c(O[C@H]2CC[C@@](C)(C(=O)O)CC2)cc1C(=O)N[C@@H]1[C@H]2CC[C@H](C2)[C@@H]1C(=O)NCC(C)(C)C(F)(F)F` [Example 624], at human RXFP1, the “Test A Sinf” value is given as 113% and the EC50 worked out at 0.026 µM. The “Test B Human Plasma Protein Binding (% free)” value in series [1] worked out at 12 % free. Moreover, the microsomal CLint in series [2] was 16 µL/min/mg. Further, the intrinsic metabolic clearance (hepatocyte CLint) in series [3] worked out at 7.9 µL/min/1e6 cells. The compound also had a hepatocyte CLint at 1 µM in series [4] of 3.3 µL/min/1e6 cells. In addition, in “Solubility (Test F)”, the solubility is on record as 1000 µM (≈ 594 µg/mL).

As to serelaxin, the “significant blood pressure drop” value in series [5] (approximately one third of the patients, after receiving serelaxin intravenously) is on record as over 40 mm Hg. The “markers of cardiac, renal and hepatic damage and congestion” value in series [5] (continuous intravenous administration to hospitalized patients) is listed as “improved”. Moreover, the “clearance from the patients' circulation” value in series [5] (patients, positive effects rapidly disappeared once intravenous injection stopped) was “rapid clearance”.

The term EC50 denotes the concentration needed to bring the measured effect to its halfway point. Usually microsomal CLint stands for the capacity of the preparation to metabolise the compound, expressed as a volume cleared per time. A lower microsomal CLint goes with slow turnover. One may read the hepatocyte CLint as the capacity of the preparation to metabolise the compound, expressed as a volume cleared per time. Read a high hepatocyte CLint as rapid turnover. As usually defined, the solubility is how much of the substance goes into solution per volume. The low end stands for a poorly soluble substance, the high end for a readily soluble substance.

The values above are taken from patent US11667602B2, “Compounds and their use” (AstraZeneca AB, priority 2020, dated 2023).
